Test results reported in patent publication US10568886B2, “Targeting Cyb5R3” (University of Pittsburgh—Of the Commonwealth System of …, priority 2014, dated 2020).

Tests used:
[1] = biological target: T1, purified human CyB5R3 (Homo sapiens, UniProt P00387); assay: NADH-ferricyanide reductase activity inhibition assay with purified Cyb5R3; assay type: biochemical; conditions: for Cyb5R3 inhibitory activity, SAR trend of phenyl substituents: para position: carbon, chlorine, bromine
T1 construct: His6 (N); made in house; host or cells: E. coli SoluBL21 (Genlantis)
T1 sequence (P00387 1-301): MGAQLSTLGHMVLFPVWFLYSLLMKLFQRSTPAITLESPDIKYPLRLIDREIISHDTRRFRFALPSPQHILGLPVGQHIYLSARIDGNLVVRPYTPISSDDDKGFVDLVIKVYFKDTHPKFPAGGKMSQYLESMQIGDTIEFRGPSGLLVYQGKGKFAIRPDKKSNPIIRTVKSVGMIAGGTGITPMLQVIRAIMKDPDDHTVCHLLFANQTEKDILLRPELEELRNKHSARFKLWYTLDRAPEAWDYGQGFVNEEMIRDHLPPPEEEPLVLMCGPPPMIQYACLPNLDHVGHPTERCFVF
Protocol: FIG. 13. […] Primary screen using purified human CyB5R3 was incubated with each compound (500 μM) followed by activity measurements with an NADH-ferricyanide reductase assay. […] Purified proteins were prepared as previously described in Sparacino-Watkins et al. Briefly, human Cyb5R3 gene was cloned into the pET28a plasmid containing a His6 tag on the N-terminus of Cyb5R3. The plasmid was transformed into SoluBL21 cells (Genlantis) and protein purification was carried out as previously described. […] Chromatographic separation was conducted with an Äkta-Purifier FPLC (GE Healthcare Life Sciences, USA) running Unicorn software version 5.1. Metal affinity chromatography resin, Ni-NTA superflow (Qiagen), was packed into a XK 26/20 column (GE). Protein identity was confirmed with liquid chromatography and tandem mass spectrometry (LC-MS/MS, University of Pittsburgh Genome and Protein Core Facilities). The NADH-ferricyanide reductase activity for purified Cyb5R3 was assayed by spectrophotometric measurements using the rate of potassium ferricyanide reduction at 420 nm, according to Strittmatter and […]. […] The reaction was started by addition of cofactor NADH and reduction of ferricyanide was followed for 2 min by recording the absorbance decrease at 420 nm using Cary 50 spectrophotometer and small glass cuvettes with a 0.2 cm path length. Since NADH has partial reduction power independent of Cyb5R3, the reaction rate was corrected by subtracting the reaction rate of ferricyanide in the absence of enzyme. The enzyme activity was calculated using the extinction coefficient of 1.02 mM^-1 cm^-1 for the difference in absorbance between reduced and oxidized form of ferricyanide. In order to observe the inhibitory effect of each Cyb5R3 small molecule inhibitor, the compounds were pre-incubated with Cyb5R3 at 37° C. for 15 minutes followed by measurements in NADH-ferricyanide reductase activity as described above.

[2] = system: Cyb5R3; conditions: previous studies; cited from earlier work
[3] = biological target: T1, purified human CyB5R3; assay: NADH-ferricyanide reductase activity inhibition assay with purified Cyb5R3; assay type: biochemical; conditions: 50 μM of each compound
[4] = system: sGC-Cyb5R3 macromolecular complexes; assay: Proximity ligation assay for sGC-Cyb5R3 complexes in VSMs; assay type: cell-based; conditions: ODQ 10 μM, 10 min, primary rat aortic VSMs
Source text: FIG. 2. […] Cells were then subjected to a proximity ligation assay and imaged using confocal microscopy for sGC-Cyb5R3 macromolecular complexes (red punctates). Quantification of complexes per nuclei is shown in graph (n=3). **** indicates significance of <0.0001 and error bars are s.e.m. […] Following ODQ treatment, VSMs were fixed and subjected to a proximity ligation assay (PLA) to determine the association between oxidized sGC and Cyb5R3.

[5] = system: oxidized sGC; assay: Purified Cyb5R3/oxidized sGC cGMP assay stimulated with Bay 58-2667; assay type: biochemical; conditions: 100 nM Bay 58-2667, in the presence of Cyb5R3
Protocol: FIG. 4. Purified Cyb5R3 directly reduces oxidized sGC resulting in limited stimulation by the sGC activator Bay 58-2667. Purified Cyb5R3, Cyb5b and oxidized sGC were mixed and incubated in trienthanolamine buffer, DTT (positive control), ZINC 747 (Cyb5R3 inhibitor), +/−NADH (required co-factor for Cyb5R3) in the absence of oxygen. Samples were then combined with GTP, and Mn^2+ followed by stimulation with 100 nM Bay 58-2667. After 5 min, reactions were stopped and samples were measured for cGMP. Quantification of cGMP is shown in the graph (n=2). Error bars represent s.e.m.

[6] = system: primary rat VSMs; assay: Rescue of sGC protein degradation by Bay 58-2667 in VSMs (Western blot); assay type: cell-based; conditions: Cyb5R3 knockdown or ZINC 747 treated VSMs
Source text: FIG. 7. Bay 58-2667 rescues sGC protein degradation following Cyb5R3 knockdown or activity inhibition. a, Western blot analysis for sGC expression in primary rat VSMs treated with and without Bay 58-2667 following Cyb5R3 knockdown or with ZINC 39395747 (b). Quantification of sGC expression is shown in the graph below (n=2). Error bars represent s.e.m.
It was therefore tested if Bay 58 2667 could rescue the effects caused by decreased Cyb5R3 expression and activity.

Compound | inhibition of CyB5R3, secondary screen [3] | inhibition of CyB5R3, primary screen ([1]; 500 μM of each compound) | also measured
CCCc1cc(=O)[nH]c(=S)[nH]1 [PTU, propylthiouracil, reference compound] | little inhibition |  | inhibition at 500 µM ([1]; 500 μM of each compound, read-out: inhibition of CyB5R3, primary screen): ~100%; concentration showing inhibition of Cyb5R3 [2]: approximately 275 μM
O=c1onc2cnc3ccccc3n12 [ODQ, 1H-(1,2,4)oxadiazolo[4,3-a]quinoxalin-1-one] |  |  | number of sGC-Cyb5R3 macromolecular complexes [4]: increases number of macromolecular complexes
O=c1cc(CSc2ccccc2)[nH]c(=O)[nH]1 [ZINC17744101] | 50% | 100% | 
O=C(O)CCCCN(CCc1ccccc1OCc1ccc(CCc2ccccc2)cc1)Cc1ccc(C(=O)O)cc1 [Bay 58-2667, cinaciguat] |  |  | cGMP production on Bay 58-2667 stimulation [5]: does not increase cGMP production; sGC protein levels [6]: restoration of sGC protein levels
O=c1cc(CSc2ccc(Br)cc2)[nH]c(=S)[nH]1 [ZINC15987502] |  |  | Cyb5R3 inhibitory activity, SAR trend of phenyl substituents [1]: activity increases with atomic mass
CCCCCOc1cc(=O)[nH]c(=S)[nH]1 [ZINC13957379] |  | 100% | 
O=c1cc(CSc2ccccc2)[nH]c(=S)[nH]1 [ZINC05626394] | 100% | 100% | 
C[C@@H]1N=C(CSc2ccccc2)CC(=O)N1 [ZINC05774833] |  | abolished all inhibitory effects | 
CC(C)SCc1cc(=O)[nH]c(=S)[nH]1 [ZINC31773411] |  | 100% | 
Cc1ccc(SCc2cc(=O)[nH]c(=S)[nH]2)cc1 [ZINC06493891] |  |  | Cyb5R3 inhibitory activity, SAR trend of phenyl substituents [1]: activity increases with atomic mass
